In patent publication US20060270643A1, “Hyfroxyflutamide induced pathways related to androgen receptor negative prostate cancer cells” (priority 2002, published 2006):
Values joined by “and” are separate entries in the source; they are usually repeats but may differ in a detail not shown here. Equal entries are not always repeated. “Also recorded” adds a separate entry of the source. Where two headings read alike, the source gives them in different places.

Experiments:
[1] = test system: association between Ras and Raf; experiment: Ras-Raf immunoprecipitation assay in DU145 cells; format: cell-based, human; conditions: lysates of treated DU145 cells; 1 μM HF, 10 ng/ml EGF, 1 μM 9-cis retinoic acid
Procedure: 8. […] (A) DU145 cells were treated with ethanol (lane 1), 10 ng/ml EGF (lane 2), 1 μM 9-cis retinoic acid (lane 3), and 1 μM HF (lane 4) after 24 hour serum starvation. Cells were lysed and 300 μg of total protein were immunoprecipitated with anti-Ras antibody, pulled-down by a protein A/G agarose beads, and detected with an anti-Raf antibody. (B) DU145 cells were transfected with pCDNA3.1 or pCDNA3.1-Ras N17 as indicated. After 24 hours serum starvation, the cells were treated with different ligands for 20 min, and then harvested. Western blots were performed with antibodies against phosphoERK1/2 and ERK1/2. The density of phospho-ERK1/2 shown as Optical Density (OD) were determined by the Versa Doc Imaging System (Bio-Rad) and quantified by Quantity One software.
200. Serum-stared and treated DU145 cells were lysed with RIPA buffer for 30 min on ice. Lysates were then centrifuiged at 12,000 g for 10 min at 4° C. and protein concentrations were determined by the Bradford assay. 500 μg of cell lysates were incubated for 4 hours with either anti-Ras or anti-EGFR antibody (1/100, Santa Cruz Biotechnology) to the protein-antibody mixture and then added in 20 μl of protein A/G plus-agarose (Santa Cruz Biotechnology) for another 4 hours incubation with constant rotation. The immunoprecipitates were washed four times with cold PBS, resolved by SDS-PAGE, and immunoblotted by anti-Raf-1 antibody, or anti-phospho-tyrosine monoclonal antibody (Oncogene Research, Calbiochem, La Jolla, Calif.). The results were visualized by chemiluminescence.

[2] = test system: p44/42 MAP kinase (ERK1 and 2); experiment: Immunoblot of phosphorylated p44/42 MAP kinase in DU145 cells; format: cell-based, human
Procedure: 7. […] (A) DU145 cells were grown in 100 mm dishes and serum-starved for 24 hours. The cells were lysed on ice. Equal amounts of cell lysate were analyzed by 12% SDS-PAGE and subsequent immunoblotted with anti-phospho ERK1/2 and anti-ERK1/2 antibodies. (B) Different cell lines, at 70 to 80% confluence, were lysed and immunoblotted with anti-AR polyclonal antibody, NH27. (C) DU145 cells were pre-incubated with MEK1/2 inhibitor U0126, or U0124 before HF, EGF, and ethanol treatment. Cells were lysed and immunoblotted with anti-phospho ERK1/2 and anti-ERK1/2 antibodies. (D) CWR2 and (E) PC3-AR cells were grown in 100 mm dishes and serum-starved for 24 hours. The cells were treated with HF, EGF or ethanol vehicle for 15 mins and immunoblotted with anti-phospho-ERK1/2 and anti-ERK1/2 antibodies. […] MMTV-ARE-Luc reporter plasmid was cotransfected with or without pSG5AR into DU145 cells. After 18 hours, cells were treated with 1 nM DHT, 1 μM HF or both for another 18 hours, and then harvested. Cell lysates were collected and assayed for the luciferase activity.
9. […] After 15 min treatment, cells were lysed and immunoblotted with anti-phospho ERK1/2 and antiERK1/2 antibodies. […] EGFR was immunoprecipitated from the cell lysates, and their phosphotyrosine level was determined by anti-phosphotyrosine antibody. All the results were visualized using enhanced chemiluminescence.
198. This assay uses a polyclonal antibody specific against the activated p44/42 MAP kinases (Cell Signaling Technology, Beverly, Mass.), which detects p44 and p42 MAP kinase (ERK1 and 2) only when catalytically activated by dual phosphorylation at Thr202 and Tyr204. DU145 cells were seeded at 1×10^5 cells per 100 mm plate and allowed to attach overnight and then the media were replaced with serum-free DMEM media for 24 hours. The cells were pre-treated with MAP kinase inhibitors, EGFR antibodies, or cycloheximide for 1 hour and followed by HF, EGF, or vehicle treatment. Cells were washed twice with PBS, harvested at indicated times, and lyzed with RIPA buffer for 30 min on ice. The protein concentrations were determined by Bradford assay, and equal amount of protein was resolved by SDS-PAGE. Gels were transferred, immunoblotted with p44/42 MAP kinase antibody (1/1000), and then incubated with secondary antibody. Proteins were visualized by the enhanced chemiluminescence system (NEN™ Life Science Products, Boston, Mass.). P44/42 MAP kinase (total ERK1/2) was blotted as a control.

phospho-ERK1/2 = experiment: Immunocytochemical staining of phospho-ERK1/2 in patients' prostate tumor biopsies; format: in vivo, human; conditions: recurrent tumors of four patients progressing while receiving flutamide (androgen ablation therapy); one value per patient
Procedure: 6. […] Prostate tumor tissue sections from the same patient with either the pre- (A and C) and post-androgen ablation plus flutamide therapy (B and D), were immunohistochemically stained for phosphorylated ERK1/2. Sections were counterstained with Mayer Hematoxylin Blue (A and B). Original magnification ×400.
196. Immunocytochemical staining were performed on formalin-fixed, paraffin-embedded tissue sections using antibodies ERK1,and ERK2 (SC-94, and SC-154, 1/400 dilution), and phospho-ERK1/2 (SC-7383, 1/50 dilution) all from Santa Cruz (Santa Cruz, Calif.). Sections were cut at 4 to 5 microns and deparaffinized according to established procedures and quenched with 3% hydrogen peroxide for 6 min. Antigen unmasking with heat retrieval in citrate buffer/pH 6.0 was accomplished by placing slides in a microwave (1500 watts) pressure cooker for 30 minutes. Slides were rinsed and stained for 45 minutes with primary antibody, and then incubated for 20 min with secondary antibody and streptavidin-HRP. Slides were developed with AEC+, rinsed and counterstained with Mayer Hematoxylin Blue in 0.3% ammonia water.
201. […] Each slide was examined and scored the number of the cells stained positive for phosph-ERK1/2 under the 100× high power field. […]

DU145 cells = experiment: Cell proliferation assay (hemacytometer counting); format: cell-based, human
Procedure: 10. […] (A) DU145 cells were seeded in 10% FBS DMEM medium and 24 hours later cells were changed to serum free medium. 48 hours later changed the medium to 0.5% FBS medium and treated with ethanol, HF, or EGF. Every 24 hours, the cells were counted by hemacytometer. […]. […] (B) DU145 cells were seeded and transfected with anti-sense oligonucleotide of Ras (IRIS 2503: 5′-[…]-3′), Raf (IIUS: 5132:5′-[…]-3′) and HIV (5′-[…]-3′) (Chen, G., Oh, S., Monia B. P., and Stacey, D. W., J. Biol. Chem., 271: 28259-28265, 1996, Monia, B. P., et al., Proc. Natl. Acad. Sci. USA, 93: 15481-15484, 1996.) by SuperFect (Qiagen). 24 hour after serum starvation, we changed the cells to medium containing 0.5% FBS, and treated the cells as described in A. Cells were counted by hemacytometer every 24 hours. The cell lysate were blotted with anti-H-Ras and Raf antibodies and β-actin was blotted for loading control.
199. DU145 cells were seeded at 2×10^4/ml on 35 mm plates and allowed to attach overnight. Cells were kept in serum-free DMEM medium for 24 hours, and then media were replaced with DMEM-0.5% FBS and treated as indicated. Cells were trypsinized and counted with a hemacytometer at different times after treatments. For the antisense oligonuleotide experiments, cells were incubated with a fixed ratio of oligonucleotide versus SuperFect (2.5 μl of SuperFect per 100 nM oligo) for 4 hours and then the oligo-containing medium was replaced with DMEM-0.5% FBS. Cells were trypsinized and counted by hemacytometer at indicated times.

cyclin D1 = experiment: Western blot of cyclin D1 and cell cycle related gene products in DU145 cells; format: cell-based, human
Procedure: (§1) 11. […] (A) DU145 cells were treated with HF (1 μM), or EGF (10 ng/ml), or ethanol vehicle for 12 hours after the serum starvation. Cells were lysed and blotted with anti-cyclin D1 antibody. (B) DU145 cells were serum starved for 24 hours and then co-transfected DN Ras or DN Raf together with […] Luc reporter with SuperFect (Qiagen). After 4 hours, the medium was changed to normal medium (10% serum) for 18 hours and then changed to serum starvation condition for another 24 hours and then treated with HF, EGF, or ethanol vehicle control. Cells were lysed for luciferase activity analysis.

[3] = test system: cyclin D1 promoter (−1745D1-Luc); experiment: Cyclin D1 promoter luciferase reporter assay in DU145 cells; format: cell-based, human; conditions: 10^−6 M HF or 30 ng/ml EGF
Procedure: as §1
197. DU145 cells were obtained from American Type Culture Collection and cultured in Dubecco's modified Eagles's medium (DMEM) supplemented with 10% fetal bovine serum (FBS). Cells (1×10^5) were seeded in 35 mm plates and transfected with the SuperFect transfection reagent (Qiagen, Chatworth, Calif.). After 4 hours the media were changed to serum-free DMEM media for 24 hours. Thereafter, the cells were treated with HF, EGF, and vehicle for 18 hours and then lysed for luciferase assay. Luciferase activity was normalized for taansfection efficiency using pRL-TK as an internal control. Luciferase assays were performed using dual-luciferase reporter system (Promega, Madison, Wis.).

AR [4] = experiment: AR phosphorylation in LNCaP cells (immunoprecipitation / Western blot); format: cell-based, human
Procedure: (§2) 14. […] Anti-pSer, anti-phosphoserine antibody. […] Total AR protein was blotted using an anti-AR antibody (AR), and AR phosphorylation was detected using an anti-phospho-AR (S210) antibody (pAR). […] The cells were then harvested for immunoprecipitation with anti-AR antibody and Western blot analysis. NH27, anti-AR antibody, anti-pSer, anti-phosphoserine antibody.
(§3) 219. The imrnunoprecipitation and Western blotting were performed as previously described (Lin, H. K., et al. (2001) Proc Natl Acad Sci USA 98, 7200-7205). The cell extracts (1 mg) were immunoprecipitated with the indicated antibody. The immunocomplexes were subjected to 8% SDS-PAGE and immunoblotted with the indicated antibody.

AR [5] = experiment: AR phosphorylation in COS-1 cells transfected with wtAR or mtAR; format: cell-based
Procedure: as §2, §3

CC1=C(/C=C/C(C)=C\C=C\C(C)=C\C(=O)O)C(C)(C)CCC1 [9 cis-retinoic acid, 9-cis retinoic acid]
Raf detected in the Ras immunocomplex [1]: not

COc1cc2ncnc(Nc3cccc(Cl)c3)c2cc1OC [AG1478]
levels of phospho-ERK1/2 induced by either HF or EGF ([2]; preincubation with 100 nM for 1 hour): decreased levels of phospho-ERK1/2

CC(C)C(=O)Nc1ccc([N+](=O)[O-])c(C(F)(F)F)c1 [Flutamide]
cells stained positive for phospho-ERK1/2 (phospho-ERK1/2): 30% and 41% and 52% and 45%

CS/C(N)=C(C#N)/C(C#N)=C(\N)SC [U0124]
block of HF-mediated MAP kinase activation ([2]; DU145 cells pre-incubated with inhibitor before HF treatment): not

N#CC(=C(/N)Sc1ccccc1N)/C(C#N)=C(\N)Sc1ccccc1N [U0126]
block of HF-mediated MAP kinase activation [2]: can block HF-mediated MAP kinase activation

C[C@@H]1C[C@@H]([C@H](O)CC2CC(=O)NC(=O)C2)C(=O)[C@@H](C)C1 [cycloheximide]
block of MAP kinase activation mediated by HF or EGF ([2]; Ten ng/ml cycloheximide, 1 hour pre-treatment): failed to block MAP kinase activation
MAP kinase activation with ethanol added to cycloheximide treatment ([2]; no HF or EGF (lane 7)): slight increment

EGF: epidermal growth factor
Raf detected in the Ras immunocomplex [1]: detected
cell proliferation (DU145 cells; cells maintained in 10% FBS medium (data not shown)): no significant stimulation of cell proliferation
cell proliferation (DU145 cells; low serum (0.5% FBS) after serum starvation): stimulate the DU 145 cell growth significant; also recorded: can promote cell proliferation
cyclin D1 expression (cyclin D1; HF (1 μM) or EGF (10 ng/ml) for 12 hours after serum starvation): induced
other cell cycle related gene products (p27, p21, Ki67, PCNA) (cyclin D1; after HF- or EGF-treatment): no significant change
induction of cyclin D1 promoter (−1745D1-Luc) activity [3]: about 2 fold

IGF-1: insulin-like growth factor-1
AR phosphorylation (AR [4]; LNCaP cells (P38), IGF-1 for 4 hours): induced AR phosphorylation
AR phosphorylation at S210 (AR [4]; LNCaP cells treated with IGF-1, site-specific anti-phosphoserine AR antibody): detected
phosphorylation of mutant AR (mtAR) (S210A/S790A) (AR [5]; IGF-1): did not induce phosphorylation
wild-type (wtAR) phosphorylation (AR [5]; IGF-1 for 4 hours): induced wild-type (wtAR) phosphorylation
